IC50 data for 20 compounds are collected here from patent US8614201B2 (Janssen Pharmaceutica NV, priority 2009, dated 2013).

Bounds are passed on as bounds.

Human TRPA1, sequence (O75762 whole entry): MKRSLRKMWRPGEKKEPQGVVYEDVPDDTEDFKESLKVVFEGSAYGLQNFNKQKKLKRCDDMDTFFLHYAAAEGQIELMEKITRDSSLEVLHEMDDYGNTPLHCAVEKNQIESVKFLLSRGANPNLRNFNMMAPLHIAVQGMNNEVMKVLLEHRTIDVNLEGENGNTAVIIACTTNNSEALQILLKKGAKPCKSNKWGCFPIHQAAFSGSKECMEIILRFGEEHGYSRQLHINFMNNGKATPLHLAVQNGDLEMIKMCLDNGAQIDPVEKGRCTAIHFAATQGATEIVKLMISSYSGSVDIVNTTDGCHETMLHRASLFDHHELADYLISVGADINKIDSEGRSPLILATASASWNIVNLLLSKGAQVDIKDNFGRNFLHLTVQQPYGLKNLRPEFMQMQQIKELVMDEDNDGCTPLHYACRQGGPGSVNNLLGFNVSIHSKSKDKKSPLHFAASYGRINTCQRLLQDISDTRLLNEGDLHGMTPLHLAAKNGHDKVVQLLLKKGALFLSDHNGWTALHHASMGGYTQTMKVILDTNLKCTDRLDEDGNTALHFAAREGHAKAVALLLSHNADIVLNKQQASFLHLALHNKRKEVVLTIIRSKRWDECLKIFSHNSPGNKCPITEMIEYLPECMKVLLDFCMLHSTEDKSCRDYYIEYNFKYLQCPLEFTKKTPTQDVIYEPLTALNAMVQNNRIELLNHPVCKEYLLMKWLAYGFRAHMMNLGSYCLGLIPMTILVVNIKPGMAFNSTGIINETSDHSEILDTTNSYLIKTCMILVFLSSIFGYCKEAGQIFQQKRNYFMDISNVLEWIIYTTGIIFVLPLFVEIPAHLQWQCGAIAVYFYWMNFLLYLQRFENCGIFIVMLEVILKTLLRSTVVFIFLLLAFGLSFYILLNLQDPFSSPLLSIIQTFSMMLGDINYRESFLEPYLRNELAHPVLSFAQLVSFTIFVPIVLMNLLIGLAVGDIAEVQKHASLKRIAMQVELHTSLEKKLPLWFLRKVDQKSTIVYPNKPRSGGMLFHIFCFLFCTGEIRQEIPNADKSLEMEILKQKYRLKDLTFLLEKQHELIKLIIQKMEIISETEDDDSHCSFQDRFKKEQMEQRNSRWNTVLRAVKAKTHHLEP

This experiment deals with Human TRPA1 (Homo sapiens, UniProt O75762). The experiment in a line: Alternative TRPA1 Ca2+ fluorometry assay (hTRPA1/TREx-HEK293 cells, Fluo-4, FDSS 6000). It is filed as cell-based. Further details: expressed in transfected cells. As to conditions: Fluo-4-AM, agonist 6,11-dihydro-5H-dibenzo[b,e]azepine-10-carboxylic acid methyl ester 25 nM, procedure used for Examples 184, 190 to 192, 194 to 316. As for the experimental part:
In alternative embodiments, the assay was performed using the following procedure for Examples 184, 190 to 192, and 194 to 316:
The human TRPA1 gene was cloned into the pT-Rex-Dest30 inducible vector and stably transfected in T-Rex™-293 cells (Invitrogen, Merelbeke, Belgium). This tetracycline inducible hTRPA1 expression system was used in order to prevent CA^2+ overload in the cultured cells due to sustained TRPA1 expression. hTRPA1/TREx-HEK293 cells (referred to as jTRPA1 cells in the following text) were maintained under standard sterile cell culture conditions. The culture medium for the jTRPA1-HEK cells was DMEN (Gibco BRL, Invitrogen, Merelbeke, Belgium) supplemented with 5 g/l gengticin (Gibco), 5 mL/l blasticidin (Invitorgen), 14.6 g/l L-Glutamine (200 mMl; Gibco), 5 g/l penicillin/streptomycin (5.10-6 IU/I, Gibco), 5.5 g/l pyruvic acid (Gibco) and 10% foetal calf serum (Hyclone, Logan Utah, USA).
For Ca^2+ fluorometry experiments, hTRPA1-HEK cells were resuspended in HBSS seeding medium: HBSS (with CaCl2 and MgCl2: Gibco) supplemented with 14.6 g/l L-Glutamine (200 mM; Gibco), 5 g/l penicillin/streptomycin (5.10-6 IU/l. Gibco), 5.5 g/l pyruvic acid (Gibco) and 10% foetal calf serum (heat inactivated for 30 minutes at 56° C.; Hyclone, Logan Utah, USA). The cells were seeded in poly-D-lysine-coated 384-well round bottom polypropylene plates (Costar Corning, Data Packaging, Cambridge Mass., USA) at 12000 cells/well. Fifty ng/ml tetracycline was added to induce the hTRPA1 expression 24 h before the experiment.
The cells were loaded with 5 mg/l Fluo-4-AM (Molecular Probes, Invitorgen, Merelbeke, Belgium) dissolved in HBSS seeding medium supplemented with 0.7 g/l Probenecid (Sigma) and incubated for 1 h at 37° C. and subsequently at 20° C. for 1 to 2 h. The fluorescence was measured in the FDSS 6000 imaging based plate reader (Hamamutsu Photonics K.K., Hamamutsu City, Japan). The excitation wavelength was 488 nm and the emission wavelength 540 nm. After a control period of 12 seconds the inventive compounds were added and the Ca^2+ signal was measured within 14 minutes after application. Finally, a TRPA1 agonist, 6,11-dihydro-5H-dibenzo[b,e]azepine-10-carboxylic acid methyl ester, was added at a final concentration of 25 nM. The emission ratio was calculated by dividing the emission signal (Em540) by the first EM540 signal of the control period to compensate for the background fluorescence. […] For intracellular Ca^2+ measurements, a compound stock solution (10 to 100 mM) was further diluted in DMSO in order to obtain a final 1% DMSO concentration in the extracellular solution.
Consider `O=C(NCc1cc(-c2ccc(Br)cc2)nc(NC2CCCC2)n1)[C@@H]1CCCN1S(=O)(=O)c1ccc(F)cc1` [Example 211, 1-(4-Fluoro-benzenesulfonyl)-pyrrolidine-2S-carboxylic acid [6-(4-bromo-phenyl)-2-cyclopentylamino-pyrimidin-4-ylmethyl]-amide], for which the half-maximal inhibitory concentration (IC50) was ~1620 nM.

Turning to `O=C(NCc1cc(-c2ccc(C(F)(F)F)cc2)nc(N2CCN(c3ccccc3F)CC2)n1)[C@@H]1CCCN1S(=O)(=O)c1ccccc1F` [Example 276, 1-(2-Fluoro-benzenesulfonyl)-pyrrolidine-2S-carboxylic acid [2-[4-(2-fluoro-phenyl)-piperazin-1-yl]-6-(4-trifluoromethyl-phenyl)-pyrimidin-4-ylmethyl]-amide], the half-inhibitory concentration (IC50) was found to be 6170 nM. For `O=C(NCc1cc(-c2ccc3c(c2)OCO3)nc(N2CCc3ccccc3C2)n1)[C@@H]1CCCN1S(=O)(=O)c1ccc(F)cc1` [Example 208, 1-(4-Fluoro-benzenesulfonyl)-pyrrolidine-2S-carboxylic acid [6-benzo[1,3]dioxol-5-yl-2-(3,4-dihydro-1H-isoquinolin-2-yl)-pyrimidin-4-ylmethyl]-amide] the value was 2290 nM; for `O=C(NCc1cc(-c2cc(F)cc(F)c2)nc(N2CCN(c3ccccc3F)CC2)n1)[C@@H]1CCCN1S(=O)(=O)c1ccc(F)cc1` [Example 249, 1-(4-Fluoro-benzenesulfonyl)-pyrrolidine-2S-carboxylic acid {6-(3,5-difluoro-phenyl)-2-[4-(2-fluoro-phenyl)-piperazin-1-yl]-pyrimidin-4-ylmethyl}-amide], 1590 nM; for `O=C(NCc1cccc(-c2ccc(C(F)(F)F)cc2)n1)[C@@H]1CCCN1S(=O)(=O)c1ccc(Cl)s1` [Example 284, 1-(5-Chloro-thiophene-2-sulfonyl)-pyrrolidine-2S-carboxylic acid [6-(4-trifluoromethyl-phenyl)-pyridin-2-ylmethyl]-amide], ~1070 nM. `CC(Nc1nc(CNC(=O)[C@@H]2CCCN2S(=O)(=O)c2ccc(F)cc2)cc(-c2ccc(Br)cc2)n1)c1ccccc1` (stereo partly drawn) [Example 212, 1-(4-Fluoro-benzenesulfonyl)-pyrrolidine-2S-carboxylic acid [6-(4-bromo-phenyl)-2-(1(R,S)-phenyl-ethylamino)-pyrimidin-4-ylmethyl]-amide] came in with a 50% inhibitory concentration (IC50) of 676 nM. For `CN(C)c1cccc(-c2cc(CNC(=O)[C@@H]3CCCN3S(=O)(=O)c3ccc(F)cc3)nc(N3CCN(c4ccccc4F)CC3)n2)c1` [Example 237, 1-(4-Fluoro-benzenesulfonyl)-pyrrolidine-2S-carboxylic acid {6-(3-dimethylamino-phenyl)-2-[4-(2-fluoro-phenyl)-piperazin-1-yl]-pyrimidin-4-ylmethyl}-amide] the value was > 10000 nM. Turning to `CCOC(=O)C1CCN(c2nc(CNC(=O)[C@@H]3CCCN3S(=O)(=O)c3ccc(F)cc3)cc(-c3ccc(C(F)(F)F)cc3)n2)CC1` (racemic) [Example 194, 1-[4-({[1-(4-Fluoro-benzenesulfonyl)-pyrrolidine-2S-carbonyl]-amino}-methyl)-6-(4-trifluoromethyl-phenyl)-pyrimidin-2-yl]-piperidine-4(R,S)-carboxylic acid ethyl ester], the IC50 was determined as 575 nM. For `O=C(NCc1cc(-c2ccc(C(F)(F)F)cc2)nc(N2CCN(c3ccccc3F)CC2)n1)[C@@H]1CCCN1S(=O)(=O)c1ccc(F)cc1F` [Example 267, 1-(2,4-Difluoro-benzenesulfonyl)-pyrrolidine-2S-carboxylic acid [2-[4-(2-fluoro-phenyl)-piperazin-1-yl]-6-(4-trifluoromethyl-phenyl)-pyrimidin-4-ylmethyl]-amide] the value was 7940 nM. For `O=C(NCc1cc(-c2ccc3c(c2)OCO3)nc(Nc2ccc(Cl)cc2)n1)[C@@H]1CCCN1S(=O)(=O)c1ccc(F)cc1` [Example 224, 1-(4-Fluoro-benzenesulfonyl)-pyrrolidine-2S-carboxylic acid [6-benzo[1,3]dioxol-5-yl-2-(4-chloro-phenylamino)-pyrimidin-4-ylmethyl]-amide], the IC50 was > 10000 nM. For `CC(C)(C)c1ccc(S(=O)(=O)N2CCC[C@H]2C(=O)NCc2cc(-c3ccc(C(F)(F)F)cc3)nc(N3CCN(c4ccccc4F)CC3)n2)cc1` [Example 282, 1-(4-tert-Butyl-benzenesulfonyl)-pyrrolidine-2S-carboxylic acid [2-[4-(2-fluoro-phenyl)-piperazin-1-yl]-6-(4-trifluoromethyl-phenyl)-pyrimidin-4-ylmethyl]-amide] the value was > 10000 nM; for `CN1CCN(C(=O)c2ccc(Nc3nc(CNC(=O)[C@@H]4CCCN4S(=O)(=O)c4ccc(F)cc4)cc(-c4ccc5c(c4)OCO5)n3)cc2)CC1` [Example 288, 1-(4-Fluoro-benzenesulfonyl)-pyrrolidine-2S-carboxylic acid {6-benzo[1,3]dioxol-5-yl-2-[4-(4-methyl-piperazine-1-carbonyl)-phenylamino]-pyrimidin-4-ylmethyl}-amide], > 10000 nM; for `O=C(NCc1cc(-c2ccc(F)cc2F)nc(N2CCN(c3ccccc3F)CC2)n1)[C@@H]1CCCN1S(=O)(=O)c1ccc(F)cc1` [Example 233, 1-(4-Fluoro-benzenesulfonyl)-pyrrolidine-2S-carboxylic acid {6-(2,4-difluoro-phenyl)-2-[4-(2-fluoro-phenyl)-piperazin-1-yl]-pyrimidin-4-ylmethyl}-amide], ~372 nM. To `O=C(NCc1cc(-c2ccc(Br)cc2)nc(N[C@@H](CO)Cc2ccccc2)n1)[C@@H]1CCCN1S(=O)(=O)c1ccc(F)cc1` [Example 210, 1-(4-Fluoro-benzenesulfonyl)-pyrrolidine-2S-carboxylic acid [6-(4-bromo-phenyl)-2-(1S-hydroxymethyl-2-phenyl-ethylamino)-pyrimidin-4-ylmethyl]-amide] belongs 4570 nM; to `Cc1ccc(F)cc1S(=O)(=O)N1CCC[C@H]1C(=O)NCc1cc(-c2ccc(C(F)(F)F)cc2)nc(N2CCN(c3ccccc3F)CC2)n1` [Example 256, 1-(5-Fluoro-2-methyl-benzenesulfonyl)-pyrrolidine-2-carboxylic acid [2-[4-(2-fluoro-phenyl)-piperazin-1-yl]-6-(4-trifluoromethyl-phenyl)-pyrimidin-4-ylmethyl]-amide], > 10000 nM; to `O=C(NCc1cc(-c2ccc(C(F)(F)F)cc2)nc(N2CCN(c3ccccc3F)CC2)n1)[C@@H]1CCCN1S(=O)(=O)c1ccc(Cl)cc1` [Example 269, 1-(4-Chloro-benzenesulfonyl)-pyrrolidine-2S-carboxylic acid [2-[4-(2-fluoro-phenyl)-piperazin-1-yl]-6-(4-trifluoromethyl-phenyl)-pyrimidin-4-ylmethyl]-amide], 229 nM. For `Cc1ccc(S(=O)(=O)N2CCC[C@H]2C(=O)NCc2cc(-c3ccc(C(F)(F)F)cc3)nc(N3CCN(c4ccccc4F)CC3)n2)cc1Cl` [Example 280, 1-(3-Chloro-4-methyl-benzenesulfonyl)-pyrrolidine-2S-carboxylic acid [2-[4-(2-fluoro-phenyl)-piperazin-1-yl]-6-(4-trifluoromethyl-phenyl)-pyrimidin-4-ylmethyl]-amide] the value was > 10000 nM. On to `O=C(NCc1cc(-c2ccc(Cl)cc2)nc(N2CCN(c3ccccc3F)CC2)n1)[C@@H]1CCCN1S(=O)(=O)c1ccc(F)cc1` [Example 241, 1-(4-Fluoro-benzenesulfonyl)-pyrrolidine-2-carboxylic acid {6-(4-chloro-phenyl)-2-[4-(2-fluoro-phenyl)-piperazin-1-yl]-pyrimidin-4-ylmethyl}-amide], for which the IC50 turned out to be 417 nM. For `O=C(NCc1cc(-c2ccc(F)cc2)nc(N2CCN(c3ccccc3F)CC2)n1)[C@@H]1CCCN1S(=O)(=O)c1ccc(F)cc1` [Example 227, 1-(4-Fluoro-benzenesulfonyl)-pyrrolidine-2S-carboxylic acid {6-(4-fluoro-phenyl)-2-[4-(2-fluoro-phenyl)-piperazin-1-yl]-pyrimidin-4-ylmethyl}-amide] the value was 1170 nM. For `O=C(NCc1cc(-c2ccc(Br)cc2)nc(NCCc2ccccn2)n1)[C@@H]1CCCN1S(=O)(=O)c1ccc(F)cc1` [Example 295, 1-(4-Fluoro-benzenesulfonyl)-pyrrolidine-2S-carboxylic acid [6-(4-bromo-phenyl)-2-(2-pyridin-2-yl-ethylamino)-pyrimidin-4-ylmethyl]-amide] the value was 1740 nM.

In general, IC50 refers to the concentration that inhibits the measured activity by half. Read a high IC50 as a need for much substance.
